Values of other authors in patent US7276253B2, “Stable drug form for oral administration with benzimidazole derivatives as active ingredient and process for the preparation thereof” (AstraZeneca AB, priority 1996, dated 2007).

Settings: aqueous solution at pH values under 4

Question: Which half-life does the source give for COc1ccc2[nH]c([S+]([O-])Cc3ncc(C)c(OC)c3C)nc2c1 (stereo not shown) [Omeprazole, 5-methoxy-2(((4-methoxy-3,5-dimethyl-2-pyridyl)methyl)-sulfinyl)-1H-benzimidazole] here?
Answer: Its half-life is “less than ten”.
